From article PMC10141620 (Viruses, 2023)
Converted amounts (≈) assume the structure as drawn. Like-named read-outs stand apart in the source and are kept apart here.

Tests used:
in vitro [1] = conditions: human
[2] = system: NL4-3ΔEnv-NanoLuc/SARS-CoV-2 (USA-WA1/2020) pseudovirus; assay: microbe, parasite or virus in culture; type: cell-based
in vitro [3] = conditions: human; remark: listed apart in the source
[4] = system: NL4-3ΔEnvLuc/A-MLV pseudovirus; assay: microbe, parasite or virus in culture; type: cell-based, amphotropic murine leukemia virus (A-MLV); conditions: 293T/ACE2, read-out: A-MLV IC50
in vitro [5] = conditions: human; remark: listed apart in the source
[6] = system: NL4-3ΔEnv-NanoLuc/MERS-CoV pseudovirus; assay: microbe, parasite or virus in culture; type: cell-based; conditions: Middle East respiratory syndrome-related coronavirus
in vitro [7] = conditions: human; remark: listed apart in the source
[8] = system: NL4-3ΔEnv-NanoLuc/SARS-CoV-1 pseudovirus; assay: microbe, parasite or virus in culture; type: cell-based; conditions: Severe acute respiratory syndrome coronavirus
in vitro [9] = conditions: human; remark: listed apart in the source
[10] = system: SARS-CoV-2 spike (Wuhan-Hu-1) mediated cell-to-cell fusion, Jurkat donor / 293T/ACE2 acceptor cells; assay: microbe, parasite or virus in culture; type: cell-based; conditions: Severe acute respiratory syndrome coronavirus 2, 4 h; read-out: IC50, cell-to-cell fusion inhibition
in vitro [11] = conditions: human, microsomes, pH 7.4
physchem = conditions: pH 7.4
CYP1A2 = CYP1A2 (Homo sapiens, UniProt P05177); assay: biochemical
[12] = pH 7.4
CYP2C8 = CYP2C8 (Homo sapiens, UniProt P10632); assay: biochemical
Plasma protein binding = conditions: human, pH 7.4
SARS-CoV-1 Urbani = assay: microbe, parasite or virus in culture; type: cell-based; conditions: Severe acute respiratory syndrome coronavirus, Calu-3, read-out: IC50, SARS-CoV-1 Urbani
CYP2C9 = CYP2C9 (Homo sapiens, UniProt P11712); assay: biochemical
in vitro [13] = conditions: human; remark: listed apart in the source
CYP2D6 = CYP2D6 (Homo sapiens, UniProt P10635); assay: biochemical
MERS-CoV, EMC/2012 = assay: microbe, parasite or virus in culture; type: cell-based; conditions: Middle East respiratory syndrome-related coronavirus, Calu-3, read-out: IC50, MERS-CoV
[14] = system: SARS-CoV-2 strains, SARS-COV-1, and MERS-CoV pseudoviruses; assay: organism not typed; type: cell-based; conditions: Calu-3, read-out: IC50, range over all the viral clones evaluated
CYP2C19 = CYP2C19 (Homo sapiens, UniProt P33261); assay: biochemical
in vitro [15] = conditions: human; remark: listed apart in the source
CYP2B6 = CYP2B6 (Homo sapiens, UniProt P20813); assay: biochemical
[16] = Calu-3, read-out: SARS-CoV-2 USA-WA1/2020 IC50
[17] = Caco-2, read-out: MERS-CoV IC50
[18] = Calu-3, read-out: MERS-CoV IC50
[19] = 293T/ACE2, read-out: SARS-CoV-1 IC50
[20] = A549-ACE2, read-out: SARS-CoV-1 IC50
[21] = Calu-3, read-out: SARS-CoV-1 IC50

CYP2D6, sequence (P10635 whole entry): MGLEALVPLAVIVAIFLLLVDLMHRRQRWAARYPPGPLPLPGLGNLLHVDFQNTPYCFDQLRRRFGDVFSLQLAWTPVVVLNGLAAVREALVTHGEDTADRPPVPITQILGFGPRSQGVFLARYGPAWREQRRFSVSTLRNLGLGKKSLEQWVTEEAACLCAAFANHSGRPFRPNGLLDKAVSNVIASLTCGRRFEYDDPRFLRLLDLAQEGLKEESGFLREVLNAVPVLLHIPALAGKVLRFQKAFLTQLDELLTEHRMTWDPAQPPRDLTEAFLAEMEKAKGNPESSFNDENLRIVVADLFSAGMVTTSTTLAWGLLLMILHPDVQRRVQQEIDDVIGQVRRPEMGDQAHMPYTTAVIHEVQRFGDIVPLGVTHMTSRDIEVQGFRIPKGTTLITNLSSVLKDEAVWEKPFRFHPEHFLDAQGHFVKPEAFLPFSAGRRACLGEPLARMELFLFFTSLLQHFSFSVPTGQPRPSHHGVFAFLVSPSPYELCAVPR
CYP2B6, sequence (P20813 whole entry): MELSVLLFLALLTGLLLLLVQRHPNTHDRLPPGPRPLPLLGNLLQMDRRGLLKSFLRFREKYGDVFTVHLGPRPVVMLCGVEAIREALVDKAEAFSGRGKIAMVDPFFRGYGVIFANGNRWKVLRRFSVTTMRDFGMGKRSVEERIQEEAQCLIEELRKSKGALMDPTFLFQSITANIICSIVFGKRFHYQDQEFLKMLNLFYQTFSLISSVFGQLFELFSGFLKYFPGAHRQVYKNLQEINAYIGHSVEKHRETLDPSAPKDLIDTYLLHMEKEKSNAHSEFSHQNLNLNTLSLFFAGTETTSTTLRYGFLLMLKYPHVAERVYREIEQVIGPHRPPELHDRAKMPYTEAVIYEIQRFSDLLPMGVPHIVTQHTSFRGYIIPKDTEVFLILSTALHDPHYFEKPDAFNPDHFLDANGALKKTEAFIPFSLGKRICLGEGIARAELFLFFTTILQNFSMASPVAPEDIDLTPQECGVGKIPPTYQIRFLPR
CYP2C9, sequence (P11712 whole entry): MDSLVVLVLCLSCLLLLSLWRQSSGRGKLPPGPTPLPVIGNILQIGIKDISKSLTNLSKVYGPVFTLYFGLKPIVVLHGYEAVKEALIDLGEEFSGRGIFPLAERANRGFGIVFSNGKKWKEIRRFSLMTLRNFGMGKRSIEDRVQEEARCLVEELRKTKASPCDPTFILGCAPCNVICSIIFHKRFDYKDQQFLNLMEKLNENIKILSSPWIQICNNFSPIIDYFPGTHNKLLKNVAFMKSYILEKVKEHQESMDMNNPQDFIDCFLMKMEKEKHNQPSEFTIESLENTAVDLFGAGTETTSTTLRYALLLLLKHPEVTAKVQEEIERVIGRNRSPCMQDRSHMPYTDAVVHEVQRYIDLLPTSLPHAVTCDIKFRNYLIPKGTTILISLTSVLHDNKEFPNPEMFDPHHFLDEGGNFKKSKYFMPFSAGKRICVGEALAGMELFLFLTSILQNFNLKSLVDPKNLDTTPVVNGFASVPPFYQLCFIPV
CYP2C8, sequence (P10632 whole entry): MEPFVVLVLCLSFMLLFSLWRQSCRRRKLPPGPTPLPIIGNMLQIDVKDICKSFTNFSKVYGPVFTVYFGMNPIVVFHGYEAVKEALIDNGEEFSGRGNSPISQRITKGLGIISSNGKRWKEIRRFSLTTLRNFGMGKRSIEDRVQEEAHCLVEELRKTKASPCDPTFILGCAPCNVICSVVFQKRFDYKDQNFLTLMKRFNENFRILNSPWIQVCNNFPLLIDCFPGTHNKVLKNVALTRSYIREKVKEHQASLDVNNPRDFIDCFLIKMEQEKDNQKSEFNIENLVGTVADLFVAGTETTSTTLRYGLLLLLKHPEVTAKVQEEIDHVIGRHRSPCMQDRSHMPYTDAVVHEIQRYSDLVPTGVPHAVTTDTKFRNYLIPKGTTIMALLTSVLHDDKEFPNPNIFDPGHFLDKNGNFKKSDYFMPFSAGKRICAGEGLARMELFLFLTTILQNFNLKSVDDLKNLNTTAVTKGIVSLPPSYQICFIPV
CYP1A2, sequence (P05177 whole entry): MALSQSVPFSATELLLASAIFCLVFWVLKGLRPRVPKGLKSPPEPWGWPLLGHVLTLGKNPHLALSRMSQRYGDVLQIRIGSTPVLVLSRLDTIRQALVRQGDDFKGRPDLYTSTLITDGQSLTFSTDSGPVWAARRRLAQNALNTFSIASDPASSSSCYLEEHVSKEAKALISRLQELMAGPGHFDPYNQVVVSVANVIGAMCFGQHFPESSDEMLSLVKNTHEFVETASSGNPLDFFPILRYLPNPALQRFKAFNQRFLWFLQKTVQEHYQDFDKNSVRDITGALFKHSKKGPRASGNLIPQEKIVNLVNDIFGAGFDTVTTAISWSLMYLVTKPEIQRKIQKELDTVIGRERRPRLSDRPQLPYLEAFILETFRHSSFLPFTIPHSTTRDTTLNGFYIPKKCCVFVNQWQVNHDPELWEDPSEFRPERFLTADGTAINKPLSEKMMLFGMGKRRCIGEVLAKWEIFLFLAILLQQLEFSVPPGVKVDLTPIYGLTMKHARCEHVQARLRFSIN
CYP2C19, sequence (P33261 whole entry): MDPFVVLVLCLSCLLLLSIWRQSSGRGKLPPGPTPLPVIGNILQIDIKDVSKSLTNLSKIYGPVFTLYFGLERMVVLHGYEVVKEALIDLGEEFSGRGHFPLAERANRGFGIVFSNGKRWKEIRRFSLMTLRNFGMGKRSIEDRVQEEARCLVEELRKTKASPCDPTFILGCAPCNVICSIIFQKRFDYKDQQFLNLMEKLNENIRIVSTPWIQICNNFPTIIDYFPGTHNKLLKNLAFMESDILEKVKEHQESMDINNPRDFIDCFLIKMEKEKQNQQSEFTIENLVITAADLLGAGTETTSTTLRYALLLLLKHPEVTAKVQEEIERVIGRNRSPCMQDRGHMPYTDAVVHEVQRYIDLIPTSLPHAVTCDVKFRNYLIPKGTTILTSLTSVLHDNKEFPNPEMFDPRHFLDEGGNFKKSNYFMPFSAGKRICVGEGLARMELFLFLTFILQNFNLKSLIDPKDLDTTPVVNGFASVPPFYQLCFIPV

## COc1cc(/C=c2/sc3nc4ccccc4n3c2=O)ccc1OCc1cccc(C(=O)O)c1 [NBCoV77]
In vitro [1]
  CC50: > 50 µM
[2]; Pseudovirus, 293T/ACE2
  IC50: > 10000 nM
[2]; Pseudovirus, A549-ACE2
  IC50: > 10000 nM
In vitro [3]
  CC50: > 50 µM

## Cc1cc(C(=O)O)ccc1-c1ccc(/C=c2\sc3nc4ccccc4n3c2=O)o1 [NBCoV70]
In vitro [1]
  CC50: > 50 µM
[2]; Pseudovirus, 293T/ACE2
  IC50: 9500 ± 1000 nM
[2]; Pseudovirus, A549-ACE2
  IC50: > 10000 nM
In vitro [3]
  CC50: > 50 µM

## Cc1cc2nc3s/c(=C\c4ccc(-c5ccc6c(c5)COC6=O)o4)c(=O)n3c2cc1C [NBCoV65]
In vitro [1]
  CC50: > 50 µM
[2]; Pseudovirus, 293T/ACE2
  IC50: > 10000 nM
[2]; Pseudovirus, A549-ACE2
  IC50: > 10000 nM
In vitro [3]
  CC50: > 50 µM

## O=C(O)c1ccc(Cl)c(-c2ccc(/C=c3/sc4nc5ccccc5n4c3=O)o2)c1 [NBCoV74]
In vitro [1]
  CC50: > 50 µM
[2]; Pseudovirus, 293T/ACE2
  IC50: > 10000 nM
[2]; Pseudovirus, A549-ACE2
  IC50: > 10000 nM
In vitro [3]
  CC50: > 50 µM

## Cc1ccc2c(nc3s/c(=C\c4ccc(-c5ccccc5C(=O)O)o4)c(=O)n32)c1C [NBCoV68]
In vitro [1]
  CC50: > 50 µM
[2]; Pseudovirus, 293T/ACE2
  IC50: 3900 ± 100 nM
[2]; Pseudovirus, A549-ACE2
  IC50: 2300 ± 70 nM
In vitro [3]
  CC50: > 50 µM

## O=C(O)c1cc(-c2ccc(/C=c3\sc4nc(=O)c5c6c(sc5n4c3=O)CCCC6)o2)ccc1Cl [NBCoV36]
In vitro [1]
  CC50: 43 ± 0.9 µM
[2]; [16]
  IC50: 433 ± 49 nM
[2]; Pseudovirus, 293T/ACE2
  IC50: 330 ± 18 nM
[2]; Pseudovirus, A549-ACE2
  IC50: 227 ± 18 nM
[4]
  IC50: 3300 ± 100 nM
In vitro [5]
  CC50: > 50 µM
[6]; [17]
  IC50: 428 ± 34 nM
[6]; [18]
  IC50: 589 ± 117 nM
[6]; MRC5, read-out: MERS-CoV IC50
  IC50: 837 ± 38 nM
In vitro [7]
  CC50: > 50 µM
In vitro [3]
  CC50: > 50 µM
[8]; [19]
  IC50: 660 ± 30 nM
[8]; [20]
  IC50: 147 ± 19 nM
[8]; [21]
  IC50: 627 ± 58 nM
In vitro [9]
  CC50: > 50 µM
[10]
  IC50: 900 nM

## Cc1cc(C)c2nc3s/c(=C\c4ccc(-c5ccc(Cl)c(C(=O)O)c5)o4)c(=O)n3c2c1 [NBCoV37]
In vitro [1]
  CC50: 42.5 ± 2 µM
[2]; [16]
  IC50: 368 ± 45 nM
[2]; Pseudovirus, 293T/ACE2
  IC50: 66 ± 2 nM
[2]; Pseudovirus, 293T/ACE2, read-out: IC50, range over both cell lines
  IC50: 66 to 198 nM
[2]; Pseudovirus, A549-ACE2
  IC50: 145 ± 12 nM
[4]
  IC50: 1510 ± 88 nM
In vitro [5]
  CC50: > 50 µM
[6]; [17]
  IC50: 161 ± 53 nM
[6]; [18]
  IC50: 877 ± 50 nM
[6]; MRC5, read-out: MERS-CoV IC50
  IC50: 229 ± 20 nM
[6]; read-out: MERS-CoV IC50, range over both cell lines
  IC50: 161 to 229 nM
In vitro [7]
  CC50: > 50 µM
In vitro [3]
  CC50: ~50 µM
[8]; [19]
  IC50: 340 ± 34 nM
[8]; [20]
  IC50: 95 ± 1 nM
[8]; [21]
  IC50: 1000 ± 132 nM
In vitro [9]
  CC50: 48 ± 2 µM
[10]
  IC50: 1400 nM

## Cc1cc2nc3s/c(=C/c4ccc(-c5cccc(C(=O)O)c5)o4)c(=O)n3c2cc1C [NBCoV63]
In vitro [1]
  CC50: ≥ 50 µM
[2]
  antiviral activity (in words): Active
[2]; [16]
  IC50: 120 ± 6 nM
[2]; Pseudovirus, 293T/ACE2
  IC50: 80 ± 7 nM
[2]; Pseudovirus, A549-ACE2
  IC50: 55 ± 3 nM
[4]
  IC50: 303 ± 29 nM
In vitro [11]
  half-life: > 180 min
  microsomal CLint: 3.4 µL/min/mg
In vitro [5]
  CC50: 50 µM
[6]; [17]
  IC50: 75 ± 25 nM
[6]; [18]
  IC50: 220 ± 30 nM
[6]; MRC5, read-out: MERS-CoV IC50
  IC50: 102 ± 1 nM
In vitro [7]
  CC50: > 50 µM
physchem
  solubility: 6.25 µM (≈ 2.6 µg/mL)
CYP1A2
  IC50: > 25 µM
In vitro [3]
  CC50: ≥ 50 µM
[12]
  solubility: low
[8]; [19]
  IC50: 110 ± 0.5 nM
[8]; [20]
  IC50: 59 ± 1.5 nM
[8]; [21]
  IC50: 133 ± 28 nM
In vitro [9]
  CC50: > 50 µM
CYP2C8
  IC50: > 25 µM
Plasma protein binding
  fraction unbound at 4 h, 5 µM: < 0.005
SARS-CoV-1 Urbani
  IC50: 3980 nM
CYP2C9
  IC50: > 25 µM
In vitro [13]; Caco-2
  efflux ratio: 42.3
In vitro [13]; Caco-2, pH 7.4
  Papp A→B: 0.00242 ×10⁻⁶ cm/s
  Papp B→A: 0.19 ×10⁻⁶ cm/s
CYP2D6
  IC50: > 25 µM
MERS-CoV, EMC/2012
  IC50: 8.01 µM
[10]
  IC50: 900 nM
[14]
  IC50: 120 to 220 nM
CYP2C19
  IC50: > 25 µM
In vitro [15]
  CC50: > 50 µM
CYP2B6
  IC50: > 25 µM

## CCC(CC)COC(=O)[C@H](C)N[P@](=O)(OC[C@H]1O[C@@](C#N)(c2ccc3c(N)ncnn23)[C@H](O)[C@@H]1O)Oc1ccccc1 [Remdesivir, reference compound]
SARS-CoV-1 Urbani
  IC50: 1080 nM
MERS-CoV, EMC/2012
  IC50: 17.8 µM
In vitro [15]
  CC50: > 50 µM

## O=C(O)c1cc(C(=O)O)cc(-c2ccc(C=c3sc4nc5ccccc5n4c3=O)o2)c1 [NBCoV62]
In vitro [1]
  CC50: > 50 µM
[2]; Pseudovirus, 293T/ACE2
  IC50: > 10000 nM
[2]; Pseudovirus, A549-ACE2
  IC50: > 10000 nM
In vitro [3]
  CC50: > 50 µM

## O=c1/c(=C\c2ccc(-c3cccc(Cl)c3)o2)sc2nc3ccccc3n12 [NBCoV71]
[2]; Pseudovirus, 293T/ACE2
  IC50: > 10000 nM
[2]; Pseudovirus, A549-ACE2
  IC50: > 10000 nM

## Cc1ccc2c(nc3s/c(=C/c4ccc(-c5ccc(C(=O)O)cc5)o4)c(=O)n32)c1C [NBCoV69]
In vitro [1]
  CC50: > 50 µM
[2]; Pseudovirus, 293T/ACE2
  IC50: 2550 ± 105 nM
[2]; Pseudovirus, A549-ACE2
  IC50: 3000 ± 400 nM
In vitro [3]
  CC50: > 50 µM
